Test results reported in ChEMBL document CHEMBL3217610, “SAR investigations on a novel class of gamma-secretase modulators based on a unique scaffold” (Medchemcomm, 2013).

What was measured:
Gamma-secretase [1] = experiment: Modulation of gamma-secretase (unknown origin) assessed as inhibition of amyloid beta 40 production; type: protein-complex assay, Homo sapiens
[2] = molecular target: T1, Gamma-secretase (Homo sapiens) (UniProt Q96BI3+Q9NZ42+Q8WW43+P49768+Q92542+P49810); experiment: Selectivity ratio of IC50 for modulation of gamma-secretase (unknown origin) assessed as inhibition of amyloid beta 40 production to IC50 for modulation of gamma-secretase (unknown origin) assessed as inhibition of amyloid beta 42 production; type: protein-complex assay
Gamma-secretase [3] = experiment: Modulation of gamma-secretase (unknown origin) assessed as inhibition of amyloid beta 42 production; type: protein-complex assay, Homo sapiens
[4] = molecular target: T1, Gamma-secretase (Homo sapiens); experiment: Modulation of gamma-secretase (unknown origin) assessed as inhibition of amyloid beta 40 production at 20 uM relative to control; type: protein-complex assay
[5] = molecular target: T1, Gamma-secretase (Homo sapiens); experiment: Modulation of gamma-secretase (unknown origin) assessed as inhibition of amyloid beta 40 production at 4 uM relative to control; type: protein-complex assay
Gamma-secretase [6] = experiment: Modulation of gamma-secretase (unknown origin) expressed in CHO cells assessed as inhibition of amyloid beta 42 production; type: cell-based, Homo sapiens
Gamma-secretase [7] = experiment: Modulation of gamma-secretase (unknown origin) expressed in CHO cells assessed as inhibition of amyloid beta 40 production; type: cell-based, Homo sapiens

CC(=O)O[C@@H]([C@@H]1C[C@@H](C)[C@H]2[C@H](O1)[C@H](O)[C@@]1(C)[C@@H]3CC[C@H]4C(C)(C)[C@@H](OC(=O)N5CCOCC5)CC[C@@]45C[C@@]35CC[C@]21C)C(C)(C)O
IC50 (Gamma-secretase [1]): 13600 nM
Ratio IC50 [2]: 62
IC50 (Gamma-secretase [3]): 220 nM

CC(=O)O[C@@H]([C@@H]1C[C@@H](C)[C@H]2[C@H](O1)[C@H](O)[C@@]1(C)[C@@H]3CC[C@H]4C(C)(C)[C@@H](OC(=O)CN)CC[C@@]45C[C@@]35CC[C@]21C)C(C)(C)O
IC50 (Gamma-secretase [3]): 95 nM

CC(=O)O[C@@H]([C@@H]1C[C@@H](C)[C@H]2[C@H](O1)[C@H](O)[C@@]1(C)[C@@H]3CC[C@H]4C(C)(C)[C@@H](OC(=O)C5CCCO5)CC[C@@]45C[C@@]35CC[C@]21C)C(C)(C)O (mixture of isomers)
inhibition [4]: 44%
Ratio IC50 [2]: > 23
IC50 (Gamma-secretase [3]): 860 nM

CC(=O)O[C@@H]([C@@H]1C[C@@H](C)[C@H]2[C@H](O1)[C@H](O)[C@@]1(C)[C@@H]3CC[C@H]4C(C)(C)[C@@H](OC(=O)C5CCN5)CC[C@@]45C[C@@]35CC[C@]21C)C(C)(C)O (mixture of isomers)
IC50 (Gamma-secretase [3]): 220 nM

CC(=O)O[C@@H]([C@@H]1C[C@@H](C)[C@H]2[C@H](O1)[C@H](O)[C@@]1(C)[C@@H]3CC[C@H]4C(C)(C)[C@@H](OC(=O)NCCN(C)C)CC[C@@]45C[C@@]35CC[C@]21C)C(C)(C)O
inhibition [5]: 23%
Ratio IC50 [2]: > 11
IC50 (Gamma-secretase [3]): 360 nM

CC(=O)O[C@H]1CC[C@]23C[C@]24CC[C@]2(C)[C@@H]5[C@H](O[C@H]([C@H](OC(C)=O)C(C)(C)O)C[C@H]5C)[C@H](O)[C@@]2(C)[C@@H]4CC[C@H]3C1(C)C
IC50 (Gamma-secretase [1]): 12000 nM
Ratio IC50 [2]: 16
IC50 (Gamma-secretase [3]): 760 nM

CC(=O)O[C@@H]([C@@H]1C[C@@H](C)[C@H]2[C@H](O1)[C@H](O)[C@@]1(C)[C@@H]3CC[C@H]4C(C)(C)[C@@H](OC(=O)N5CCC5)CC[C@@]45C[C@@]35CC[C@]21C)C(C)(C)O
IC50 (Gamma-secretase [1]): 14700 nM
Ratio IC50 [2]: 43
IC50 (Gamma-secretase [3]): 340 nM

CC(=O)O[C@@H]([C@@H]1C[C@@H](C)[C@H]2[C@H](O1)[C@H](O)[C@@]1(C)[C@@H]3CC[C@H]4C(C)(C)[C@@H](OC(=O)NC5CNC5)CC[C@@]45C[C@@]35CC[C@]21C)C(C)(C)O
IC50 (Gamma-secretase [1]): 330 nM
Ratio IC50 [2]: 7
IC50 (Gamma-secretase [3]): 47 nM

CC(=O)OC(C)(C)[C@H]1O[C@@]23O[C@H]1C[C@@H](C)C2[C@@]1(C)CC[C@@]24C[C@@]25CC[C@H](O[C@@H]2OC[C@@H](O)[C@H](O)[C@H]2O)C(C)(C)[C@@H]5CC[C@H]4[C@]1(C)[C@H]3O (stereo partly specified)
IC50 (Gamma-secretase [3]): 3000 nM

C[C@@H]1C[C@@H]([C@H](O)C(C)(C)O)O[C@H]2[C@H]1[C@@]1(C)CC[C@@]34C[C@@]35CC[C@H](O[C@@H]3OC[C@@H](O)[C@H](O)[C@H]3O)C(C)(C)[C@@H]5CC[C@H]4[C@]1(C)[C@H]2O
IC50 (Gamma-secretase [3]): 3100 nM

CC(=O)O[C@@H]([C@@H]1C[C@@H](C)[C@H]2[C@H](O1)[C@H](O)[C@@]1(C)[C@@H]3CC[C@H]4C(C)(C)[C@@H](OC(=O)C5(C)COC5)CC[C@@]45C[C@@]35CC[C@]21C)C(C)(C)O
inhibition [4]: 41%
Ratio IC50 [2]: > 33
IC50 (Gamma-secretase [3]): 590 nM

CC(=O)O[C@@H]([C@@H]1C[C@@H](C)[C@H]2[C@H](O1)[C@H](O)[C@@]1(C)[C@@H]3CC[C@H]4C(C)(C)[C@@H](O[C@@H]5OC[C@@H](O)[C@H](O)[C@H]5O)CC[C@@]45C[C@@]35CC[C@]21C)C(C)(C)O
IC50 (Gamma-secretase [1]): 1000 nM
IC50 (Gamma-secretase [3]): 60 nM

CC(=O)O[C@@H]([C@@H]1C[C@@H](C)C2=C(O1)[C@H](O)[C@@]1(C)[C@@H]3CC[C@H]4C(C)(C)[C@@H](O[C@@H]5OC[C@@H](O)[C@H](O)[C@H]5O)CC[C@@]45C[C@@]35CC[C@]21C)C(C)(C)O
IC50 (Gamma-secretase [1]): 2700 nM
IC50 (Gamma-secretase [6]): 100 nM
IC50 (Gamma-secretase [3]): 100 nM
IC50 (Gamma-secretase [7]): 6300 nM

CC(=O)O[C@@H]([C@@H]1C[C@@H](C)[C@H]2[C@H](O1)[C@H](O)[C@@]1(C)[C@@H]3CC[C@H]4C(C)(C)[C@@H](OC(=O)NC5COC5)CC[C@@]45C[C@@]35CC[C@]21C)C(C)(C)O
inhibition [4]: 40%
Ratio IC50 [2]: > 44
IC50 (Gamma-secretase [3]): 450 nM

CC(=O)O[C@@H]([C@@H]1C[C@@H](C)[C@H]2[C@H](O1)[C@H](O)[C@@]1(C)[C@@H]3CC[C@H]4C(C)(C)[C@@H](OC(=O)c5ccncc5)CC[C@@]45C[C@@]35CC[C@]21C)C(C)(C)O
IC50 (Gamma-secretase [3]): 1000 nM

CC(=O)O[C@@H]([C@@H]1C[C@@H](C)[C@H]2[C@H](O1)[C@H](O)[C@@]1(C)[C@@H]3CC[C@H]4C(C)(C)[C@@H](OC(=O)CCC(=O)O)CC[C@@]45C[C@@]35CC[C@]21C)C(C)(C)O
IC50 (Gamma-secretase [1]): 18000 nM
Ratio IC50 [2]: 11
IC50 (Gamma-secretase [3]): 1600 nM

CC(=O)O[C@@H]([C@@H]1C[C@@H](C)[C@H]2[C@H](O1)[C@H](O)[C@@]1(C)[C@@H]3CC[C@H]4C(C)(C)[C@@H](OC(=O)C5CNC5)CC[C@@]45C[C@@]35CC[C@]21C)C(C)(C)O
IC50 (Gamma-secretase [1]): 1300 nM
Ratio IC50 [2]: 24
IC50 (Gamma-secretase [3]): 55 nM

CC(=O)O[C@@H]([C@@H]1C[C@@H](C)[C@H]2[C@H](O1)[C@H](O)[C@@]1(C)[C@@H]3CC[C@H]4C(C)(C)[C@@H](OC(=O)Cc5ccccn5)CC[C@@]45C[C@@]35CC[C@]21C)C(C)(C)O
IC50 (Gamma-secretase [1]): 7200 nM
Ratio IC50 [2]: 9
IC50 (Gamma-secretase [3]): 780 nM

CC(=O)O[C@@H]([C@@H]1C[C@@H](C)[C@H]2[C@H](O1)[C@H](O)[C@@]1(C)[C@@H]3CC[C@H]4C(C)(C)[C@@H](OC(=O)[C@@H]5CCCN5)CC[C@@]45C[C@@]35CC[C@]21C)C(C)(C)O
IC50 (Gamma-secretase [1]): 4600 nM
Ratio IC50 [2]: 20
IC50 (Gamma-secretase [3]): 230 nM

CC(=O)O[C@@H]([C@@H]1C[C@@H](C)[C@H]2[C@H](O1)[C@H](O)[C@@]1(C)[C@@H]3CC[C@H]4C(C)(C)[C@@H](OC(=O)NCCN)CC[C@@]45C[C@@]35CC[C@]21C)C(C)(C)O
IC50 (Gamma-secretase [1]): 3000 nM
Ratio IC50 [2]: 33
IC50 (Gamma-secretase [3]): 91 nM

CC(=O)O[C@@H]([C@@H]1C[C@@H](C)[C@H]2[C@H](O1)[C@H](O)[C@@]1(C)[C@@H]3CC[C@H]4C(C)(C)[C@@H](O)CC[C@@]45C[C@@]35CC[C@]21C)C(C)(C)O
IC50 (Gamma-secretase [1]): 14000 nM
IC50 (Gamma-secretase [3]): 600 nM

CC(=O)O[C@@H]([C@@H]1C[C@@H](C)[C@H]2[C@H](O1)[C@H](O)[C@@]1(C)[C@@H]3CC[C@H]4C(C)(C)[C@@H](OC(=O)NCC(=O)O)CC[C@@]45C[C@@]35CC[C@]21C)C(C)(C)O
inhibition [4]: 37%
Ratio IC50 [2]: > 8
IC50 (Gamma-secretase [3]): 2500 nM

CC(=O)O[C@@H]([C@@H]1C[C@@H](C)[C@H]2[C@H](O1)[C@H](O)[C@@]1(C)[C@@H]3CC[C@H]4C(C)(C)[C@@H](OC(=O)NCCN5CCOCC5)CC[C@@]45C[C@@]35CC[C@]21C)C(C)(C)O
inhibition [4]: 31%
Ratio IC50 [2]: > 86
IC50 (Gamma-secretase [3]): 230 nM

CC(=O)O[C@@H]([C@@H]1C[C@@H](C)[C@H]2[C@H](O1)[C@H](O)[C@@]1(C)[C@@H]3CC[C@H]4C(C)(C)[C@@H](OC(=O)c5cccnc5)CC[C@@]45C[C@@]35CC[C@]21C)C(C)(C)O
IC50 (Gamma-secretase [1]): 14000 nM
Ratio IC50 [2]: 54
IC50 (Gamma-secretase [3]): 260 nM

CC(=O)O[C@@H]([C@@H]1C[C@@H](C)[C@H]2[C@H](O1)[C@H](O)[C@@]1(C)[C@@H]3CC[C@H]4C(C)(C)[C@@H](OC(=O)NCc5ccccn5)CC[C@@]45C[C@@]35CC[C@]21C)C(C)(C)O
inhibition [4]: 32%
Ratio IC50 [2]: > 35
IC50 (Gamma-secretase [3]): 560 nM

CC(=O)O[C@@H]([C@@H]1C[C@@H](C)[C@H]2[C@H](O1)[C@H](O)[C@@]1(C)[C@@H]3CC[C@H]4C(C)(C)[C@@H](OC(N)=O)CC[C@@]45C[C@@]35CC[C@]21C)C(C)(C)O
inhibition [4]: 27%
Ratio IC50 [2]: > 100
IC50 (Gamma-secretase [3]): 200 nM

CC(=O)O[C@@H]([C@@H]1C[C@@H](C)[C@H]2[C@H](O1)C(=O)[C@@]1(C)[C@@H]3CC[C@H]4C(C)(C)[C@@H](O[C@@H]5OC[C@@H](O)[C@H](O)[C@H]5O)CC[C@@]45C[C@@]35CC[C@]21C)C(C)(C)O
IC50 (Gamma-secretase [1]): 9800 nM
IC50 (Gamma-secretase [3]): 600 nM

CC(=O)O[C@@H]([C@@H]1C[C@@H](C)[C@H]2[C@H](O1)[C@H](O)[C@@]1(C)[C@@H]3CC[C@H]4C(C)(C)[C@@H](OC(=O)NC5CCC5)CC[C@@]45C[C@@]35CC[C@]21C)C(C)(C)O
inhibition [4]: 26%
Ratio IC50 [2]: > 42
IC50 (Gamma-secretase [3]): 470 nM

CC(=O)O[C@@H]([C@@H]1C[C@@H](C)[C@H]2[C@H](O1)[C@H](O)[C@@]1(C)[C@@H]3CC[C@H]4C(C)(C)[C@@H](OC(=O)CN(C)C)CC[C@@]45C[C@@]35CC[C@]21C)C(C)(C)O
IC50 (Gamma-secretase [1]): 8400 nM
Ratio IC50 [2]: 15
IC50 (Gamma-secretase [3]): 570 nM

CC(=O)O[C@@H]([C@@H]1C[C@@H](C)[C@H]2[C@H](O1)[C@H](O)[C@@]1(C)[C@@H]3CC[C@H]4C(C)(C)[C@@H](OC(=O)c5ccccn5)CC[C@@]45C[C@@]35CC[C@]21C)C(C)(C)O
IC50 (Gamma-secretase [1]): 13000 nM
Ratio IC50 [2]: 25
IC50 (Gamma-secretase [3]): 520 nM

CC(=O)O[C@@H]([C@@H]1C[C@@H](C)[C@H]2[C@H](O1)[C@H](O)[C@@]1(C)[C@@H]3CC[C@H]4C(C)(C)[C@@H](OC(=O)NC5CN6CCC5CC6)CC[C@@]45C[C@@]35CC[C@]21C)C(C)(C)O (stereo partly specified)
IC50 (Gamma-secretase [1]): 2400 nM
Ratio IC50 [2]: 29
IC50 (Gamma-secretase [3]): 84 nM
